Experimental data from patent US10952974B2, “Delivery of bioactive, nanoencapsulated antioxidants” (Board of Supervisors of Louisiana State University and …, priority 2014, dated 2021).
In brackets after ≈: the same amount, converted by molar mass. Read-outs that look alike come from different tables or passages of the source.

Tests used:
[1] = cited from earlier work
[2] = system: selenite-induced cataract; experiment: Selenite-induced cataract in rat pups, first animal study; type: in vivo, Wistar albino rat
Procedure: Four pregnant Wistar female albino rats were obtained from the Laboratory Animal Facility of the Iuliu Hatieganu University of Medicine and Pharmacy in Cluj-Napoca, Romania. Each female rat and its litter of pups were housed in plastic cages, on a 12 h lighting cycle, at constant temperature (22° C.) with free access to rat chow and tap water. At 12 days of age, the rat pups were randomized into seven groups as follows:
Group 1 (selenite group, positive control): no exposure to lutein
Group 2 (PLGA-NP-1) daily received orally, by gavage, 2.5 mg/kg PLGA-NP-lutein dispersed in a 0.5 mL emulsion of 30% olive oil+70% flour slurry, corresponding to a daily dose of 2.66 mg lutein/kg body mass. (The flour slurry, in turn, had been prepared by mixing 0.3 g flour in 1 ml water.)
Group 3 (PLGA-NP-2) daily received orally, by gavage, 5 mg/kg PLGA-NP-lutein dispersed in 0.5 mL emulsion of 30% olive oil+70% flour slurry, corresponding to a daily dose of 5.32 mg lutein/kg body mass. (Flour slurry: identical to that used for Group 2
Group 4 (lutein) daily received orally, by gavage, 0.00525 mg unmodified lutein dispersed in 0.5 mL emulsion of 30% olive oil+70% flour slurry, corresponding to a daily dose of 0.125 mg lutein/kg body mass. (Flour slurry: identical to that used for Group 2.)
Group 5 (HG-PLGA-NP-1) was treated locally, once a day, with corneal application (1 drop in each eye) of 1 wt % PLGA-NP-lutein in the bioadhesive hydrogel of Example 19. (30 mg of lyophilized lutein-loaded PLGA NPs were dissolved in 3 ml of bioadhesive hydrogel. The volume of one drop of hydrogel was approx. 0.012 mL, with a density of 0.9444 g/mL.)
Group 6 (HG-PLGA-NP-2) was treated locally, once a day, by corneal application (1 drop/in each eye) with 3% PLGA-NP-lutein in a bioadhesive hydrogel. (90 mg of lyophilized lutein-loaded PLGA NPs were dissolved in 3 ml of bioadhesive hydrogel. The volume of one drop of hydrogel was approx. 0.012 mL, with a density of 0.9444 g/mL.)
Group 7 (negative control)—no exposure to selenite, and no lutein treatment.
On day 13 post-partum, cataracts were induced in all animals in Groups 1-6 with a single, intraperitoneal injection of sodium selenite (Na2SeO3), 30 μmol/kg. Subsequently, the animals from groups 2-6 were treated daily, in accordance with the protocols described above. The lutein content of the PLGA-NPs (42.61 μg lutein/mg PLGA-NP) was assessed by UV-VIS spectrophotometry (450 nm) with an external standard calibration. On day 21 post-partum, cataract development was evaluated by slit-lamp examination. Eyes were scored into one of five stages: stage 0 (no cataract), stage 1 (slight nucleus opacity), stage 2 (mild nucleus opacity, a central while opacity occupying less than half the diameter of the nucleus), stage 3 (dense opacity, a central while opacity occupying more than half the diameter of the nucleus) and stage 4 (dense, white opacity over the whole nucleus). Statistics were performed in SPSS 14.0 for Windows and Excel. The variables were checked for normal distribution with the Shapiro-Wilk test. Groups were compared with the Wilcoxon test. Statistical significance was set at p<0.05.

[3] = Solubility of lutein in water and organic solvents; type: physicochemical; conditions: chloroform vs ethanol
[4] = cited from earlier work; remark: listed apart in the source
[5] = oral gavage daily, 0.125 mg lutein/kg, day 21 postpartum

CC1=C[C@H](O)CC(C)(C)[C@H]1/C=C/C(C)=C/C=C/C(C)=C/C=C/C=C(C)/C=C/C=C(C)/C=C/C1=C(C)C[C@@H](O)CC1(C)C [Lutein, β,ε-carotene-3,3′-diol]
Solubility ([1]; in 2-Propanol): 400 µg/mL (≈ 703 µM)
Solubility ([1]; in Acetone): 800 µg/mL (≈ 1410 µM)
Solubility ([1]; in Acetonitrile): 100 µg/mL (≈ 176 µM)
Solubility ([1]; in Benzene): 600 µg/mL (≈ 1050 µM)
Solubility ([1]; in Chloroform): 6000 µg/mL (≈ 10500 µM)
Solubility ([1]; in Cyclohexane): 50 µg/mL (≈ 87.9 µM)
Solubility ([1]; in Cyclohexanone): 4000 µg/mL (≈ 7030 µM)
Solubility ([1]; in Dimethyl formamide): 1000 µg/mL (≈ 1760 µM)
Solubility ([1]; in Ethyl acetate): 800 µg/mL (≈ 1410 µM)
Solubility ([1]; in Ethyl alcohol): 300 µg/mL (≈ 527 µM)
Solubility ([1]; in Ethyl ether): 2000 µg/mL (≈ 3520 µM)
Solubility ([1]; in Hexane): 20 µg/mL (≈ 35.2 µM)
Solubility ([1]; in Methyl alcohol): 200 µg/mL (≈ 352 µM)
Solubility ([1]; in Methyl tert butyl ether): 2000 µg/mL (≈ 3520 µM)
Solubility ([1]; in Tetrahydrofuran): 8000 µg/mL (≈ 14100 µM)
Solubility ([1]; in Toluene): 500 µg/mL (≈ 879 µM)
Solubility in water [1]: Insoluble
Solubility in water ([1]; listed as lutein): water-insoluble
Cataract stage Mean ± SD [2, 5]: 3.2 ± 0.8
Stage 0 [2, 5]: 0 no. animals
Stage 1 [2, 5]: 0 no. animals
Stage 2 [2, 5]: 1 no. animals
Stage 3 [2, 5]: 2 no. animals
Stage 4 [2, 5]: 2 no. animals
reduction in cataract development vs selenite group ([2]; treated orally): small (and statistically insignificant) reduction in cataract development
solubility in chloroform relative to solubility in ethanol [3]: 20 times
Stability ([4]; stored at −20° C. under a nitrogen atmosphere): Stable if stored at −20 °C under a nitrogen
Stability ([4]; to light and oxygen): Unstable to light and oxygen;
